Structures can show the parent of a compound that is named as a salt.
Legend:
[1] = tested on: human epithelial carcinoma cell line A431; test: Cytotoxicity assay (sulphorodamine B test), A431; assay type: cell-based
Procedure: (§1) Tumour cells were seeded in 96-well tissue culture plates at approximately 10% confluence and were allowed to attach and recover for at least 24 h. Varying concentrations of the drugs were then added to each well to calculate their IC50 value (the concentration which inhibits the 50% of cell survival). The plates were incubated at 37° C. for 72 h. At the end of the treatment, the plates were washed by removal of the supernatant and addition of phosphate buffered saline (PBS) 3 times. 200 μl PBS and 50 μl of cold 80% trichloroacetic acid (TCA) were added. The plates were incubated on ice for at least 1 h. TCA was removed, the plates were washed 3 times by immersion in distilled water and dried on paper and at 40° C. for 5 min. Then 200 μl of 0.4% sulphorodamine B in 1% acetic acid were added. The plates were incubated at RT for 30 min. Sulphorodamine B was removed, the plates were washed by immersion in 1% acetic acid for 3 times, then they were dried on paper and at 40° C. for 5 min. Then, 200 μl Tris 10 mM were added, the plates were kept under stirring for 20 min. The cell survival was determined as optical density by a Multiskan spectrofluorimeter at 540 nm. The amount of cells killed was calculated as the percentage decrease in sulphorodamine B binding compared with control cultures.
(§2) The IC50 values were calculated with the “ALLFIT” program.
The antiproliferative activity of novel Hsp90 inhibitors was evaluated on NCI-H460 non-small cell lung carcinoma cells and on a human epithelial carcinoma cell line A431.
(§3) The antiproliferative IC50 was evaluated as drug concentration required for 50% reduction of cell growth as compared with untreated controls after 72-h exposure to the drug. The IC50±SD values reported were calculated by ALLFIT program.

[2] = tested on: NCI-H460 non-small cell lung carcinoma cells; test: Cytotoxicity assay (sulphorodamine B test), NCI-H460; assay type: cell-based
Procedure: To evaluate the effect of the compounds on cells survival, the sulphorodamine B test was used. To test the effects of the compounds on cell growth, NCI-H460 non-small cell lung carcinoma cells were used. Tumour cells were grown in RPMI 1640 containing 10% fetal bovine serum (GIBCO).
as §1, §2, §3

Hsp90 = molecular target: T1, Hsp90 (Homo sapiens, UniProt P07900); test: Fluorescence polarization (FP) binding assay, displacement of GM-BODIPY; settings: GM-BODIPY tracer, 125 nM Hsp90, 4 h at 4° C.; read-out: F.P. binding assay IC50
T1 construct: purchased Stressgen SPP-776
Procedure: Fluorescence Polarization (FP)
GM-BODIPY (PerkinElmer, CUSN60342000MG) was previously dissolved in DMSO to obtain 10 mM stock solutions and kept at −20° C. until use.
The compounds were previously dissolved in DMSO to obtain stock solutions and kept at −20° C. The day of experiment, the compounds were prepared by serial dilutions in HFB. Before each use, 0.1 mg/ml Bovine Gamma globulin and 2 mM DTT were freshly added.
The plate was mixed on a shaker at 4° C. for 4 hours, and the FP values in mP (millipolarization units) were recorded. […] Curve fitting was performed using Prism GraphPad software program (GraphPad software, Inc., San Diego, Calif.).
Curve fitting was performed using Prism GraphPad software program (GraphPad software, Inc., San Diego, Calif.).

[3] = Homo sapiens, A-431, 72-h exposure
[4] = Homo sapiens, NCI-H460, 72-h exposure

IC50 (Hsp90) | Molecule | IC50 ([1]; 72-h exposure) | IC50 ([2]; 72-h exposure) | IC50 [1, 3] | IC50 [2, 4]
< 0.1 µM | CCNC(=O)c1noc(-c2cc(Cl)c(O)cc2O)c1NC(C)=O [Example 1, 4-acetylamino-5-(5-chloro-2,4-dihydroxy-phenyl)-isoxazole-3-carboxylic acid ethylamide] |  |  | 1 to 10 µM | 1 to 10 µM
0.1 to 1 µM | CCNC(=O)c1noc(-c2cc(Cl)c(O)cc2O)c1NC(=O)c1ccc(OC)cc1 [Example 2, 5-(5-chloro-2,4-dihydroxy-phenyl)-4-(4-methoxy-benzoylamino)-isoxazole-3-carboxylic acid ethylamide] |  |  | 0.1 to 1 µM | 1 to 10 µM
0.1 to 1 µM | CCNC(=O)c1noc(-c2cc(Cl)c(O)cc2O)c1NC(=O)c1ccc(OC)c(OC)c1 [Example 3, 5-(5-chloro-2,4-dihydroxy-phenyl)-4-(3,4-dimethoxy-benzoylamino)-isoxazole-3-carboxylic acid ethylamide] |  |  | 0.1 to 1 µM | 1 to 10 µM
0.1 to 1 µM | CCNC(=O)c1noc(-c2cc(Cl)c(O)cc2O)c1NC(=O)c1cc(OC)c(OC)c(OC)c1 [Example 4, 5-(5-chloro-2,4-dihydroxy-phenyl)-4-(3,4,5-trimethoxy-benzoylamino)-isoxazole-3-carboxylic acid ethylamide] |  |  | 0.1 to 1 µM | 0.1 to 1 µM
< 0.1 µM | CCNC(=O)c1noc(-c2cc(Cl)c(O)cc2O)c1NC(=O)C(C)(C)C [Example 5, 5-(5-chloro-2,4-dihydroxy-phenyl)-4-(2,2-dimethyl-propionylamino)-isoxazole-3-carboxylic acid ethylamide] |  |  | < 0.1 µM | 0.1 to 1 µM
0.1 to 1 µM | CCNC(=O)c1noc(-c2cc(Cl)c(O)cc2O)c1NC(=O)C12CC3CC(CC(C3)C1)C2 [Example 6, 4-[(adamantane-1-carbonyl)-amino]-5-(5-chloro-2,4-dihydroxy-phenyl)-isoxazole-3-carboxylic acid ethylamide] |  |  | 0.1 to 1 µM | 0.1 to 1 µM
0.1 to 1 µM | C=CC(=O)Nc1c(C(=O)NCC)noc1-c1cc(Cl)c(O)cc1O [Example 7, 4-acryloylamino-5-(5-chloro-2,4-dihydroxy-phenyl)-isoxazole-3-carboxylic acid ethylamide] |  |  | 0.1 to 1 µM | 1 to 10 µM
< 0.1 µM | CCNC(=O)c1noc(-c2cc(Cl)c(O)cc2O)c1NC(=O)c1sccc1C [Example 8, 5-(5-chloro-2,4-dihydroxy-phenyl)-4-[(3-methyl-thiophene-2-carbonyl)-amino]-isoxazole-3-carboxylic acid ethylamide] |  |  | < 0.1 µM | 0.1 to 1 µM
0.1 to 1 µM | CCNC(=O)c1noc(-c2cc(Cl)c(O)cc2O)c1NC(=O)CCN1CCOCC1 [Example 9, 5-(5-chloro-2,4-dihydroxy-phenyl)-4-(3-morpholin-4-yl-propionylamino)-isoxazole-3-carboxylic acid ethylamide] |  |  | 0.1 to 1 µM | 0.1 to 1 µM
0.1 to 1 µM | CCNC(=O)c1noc(-c2cc(Cl)c(O)cc2O)c1NC(=O)c1ccc(Br)cc1 [Example 10, 4-(4-bromo-benzoylamino)-5-(5-chloro-2,4-dihydroxy-phenyl)-isoxazole-3-carboxylic acid ethylamide] |  |  | 0.1 to 1 µM | 1 to 10 µM
0.1 to 1 µM | CCNC(=O)c1noc(-c2cc(C(C)C)c(O)cc2O)c1NC(=O)c1ccc(OC)cc1 [Example 11, 5-(2,4-dihydroxy-5-isopropyl-phenyl)-4-(4-methoxy-benzoylamino)-isoxazole-3-carboxylic acid ethylamide] |  |  |  | < 0.1 µM
< 0.1 µM | CCNC(=O)c1noc(-c2cc(C(C)C)c(O)cc2O)c1NC(C)=O [Example 12, 4-acetylamino-5-(2,4-dihydroxy-5-isopropyl-phenyl)-isoxazole-3-carboxylic acid ethylamide] |  |  |  | < 0.1 µM
< 0.1 µM | CCNC(=O)c1noc(-c2cc(C(C)C)c(O)cc2O)c1NC(=O)C(C)(C)C [Example 13, 5-(2,4-dihydroxy-5-isopropyl-phenyl)-4-(2,2-dimethyl-propionylamino)-isoxazole-3-carboxylic acid ethylamide] |  |  |  | < 0.1 µM
< 0.1 µM | CCNC(=O)c1noc(-c2cc(C(C)C)c(O)cc2O)c1NC(=O)c1sccc1C [Example 14, 5-(2,4-dihydroxy-5-isopropyl-phenyl)-4-[(3-methyl-thiophene-2-carbonyl)-amino]-isoxazole-3-carboxylic acid ethylamide] |  |  | < 0.1 µM | < 0.1 µM
0.1 to 1 µM | CCNC(=O)c1noc(-c2cc(C(C)C)c(O)cc2O)c1NC(=O)CCN1CCOCC1 [Example 15, 5-(2,4-dihydroxy-5-isopropyl-phenyl)-4-(3-morpholin-4-yl-propionylamino)-isoxazole-3-carboxylic acid ethylamide] |  |  |  | 0.1 to 1 µM
0.1 to 1 µM | CCNC(=O)c1noc(-c2cc(C(C)C)c(O)cc2O)c1NC(=O)CCN1CCN(C)CC1 [Example 16, 4-(3-(4-methylpiperazin-1-yl)propanamido)-N-ethyl-5-(2,4-dihydroxy-5-isopropylphenyl)-isoxazole-3-carboxamide] |  |  | 0.1 to 1 µM | 1 to 10 µM
< 0.1 µM | CCNC(=O)c1noc(-c2cc(C(C)C)c(O)cc2O)c1NC(=O)c1ccc2cc[nH]c2c1 [Example 17, 1H-indole-6-carboxylic acid [5-(2,4-dihydroxy-5-isopropyl-phenyl)-3-ethylcarbamoyl-isoxazol-4-yl]-amide] |  |  | 0.1 to 1 µM | 0.1 to 1 µM
0.1 to 1 µM | CCNC(=O)c1noc(-c2cc(C(C)C)c(O)cc2O)c1NC(=O)C1CCCCC1 [Example 19, 4-(cyclohexanecarbonyl-amino)-5-(2,4-dihydroxy-5-isopropyl-phenyl)-isoxazole-3-carboxylic acid ethylamide] |  |  | < 0.1 µM | < 0.1 µM
< 0.1 µM | CCNC(=O)c1noc(-c2cc(C(C)C)c(O)cc2O)c1NC(=O)C1CCC(OC)CC1 (stereo not drawn) [Example 23, 5-(2,4-dihydroxy-5-isopropyl-phenyl)-4-[(4-methoxy-cyclohexanecarbonyl)-amino]-isoxazole-3-carboxylic acid ethylamide] |  |  |  | < 0.1 µM
< 0.1 µM | CCNC(=O)c1noc(-c2cc(C(C)C)c(O)cc2O)c1NC(=O)C1CCC(C(C)(C)C)CC1 (stereo not drawn) [Example 24, 4-[(4-tert-butyl-cyclohexanecarbonyl)-amino]-5-(2,4-dihydroxy-5-isopropyl-phenyl)-isoxazole-3-carboxylic acid ethylamide] |  |  |  | 0.1 to 1 µM
< 0.1 µM | CCNC(=O)c1noc(-c2cc(C(C)C)c(O)cc2O)c1NC(=O)[C@H]1CC[C@H](N)CC1 [Example 25, 4-[(trans-4-amino-cyclohexanecarbonyl)-amino]-5-(2,4-dihydroxy-5-isopropyl-phenyl)-isoxazole-3-carboxylic acid ethylamide hydrochloride] |  |  |  | 1 to 10 µM
< 0.1 µM | CCNC(=O)c1noc(-c2cc(C(C)C)c(O)cc2O)c1NC(=O)[C@H]1CC[C@H](CN)CC1 [Example 26, 4-[(trans-4-aminomethyl-cyclohexanecarbonyl)-amino]-5-(2,4-dihydroxy-5-isopropyl-phenyl)-isoxazole-3-carboxylic acid ethylamide hydrochloride] |  |  |  | 1 to 10 µM
 | COc1ccc(C(=O)Nc2c(C(=O)N3CC(F)(F)C3)noc2-c2cc(Cl)c(O)cc2O)cc1 [Example 34, 4-(4-methoxybenzamido)-5-(5-chloro-2,4-dihydroxyphenyl)-isoxazol-3-yl-(3,3-difluoroazetidin-lyl)-methanone] |  |  | > 10 µM | > 10 µM

Molecule | IC50 (Hsp90) | IC50 ([1]; 72-h exposure) | IC50 ([2]; 72-h exposure) | IC50 [1, 3] | IC50 [2, 4]
5-(2,4-dihydroxy-5-isopropyl-phenyl)-4-(4-morpholin-4-yl-methyl-benzoyl amino)-isoxazole-3-carboxylic acid ethylamide hydrochloride [Example 18] | < 0.1 µM | < 0.1 µM | < 0.1 µM |  | 

From patent publication US8383616B2, “Aryl isoxazole compounds with antitumoural activities” (Sigma-Tau Industrie Farmaceutiche Riunite SpA, priority 2008, dated 2013)
